Experimental data from ChEMBL document CHEMBL5725591, “Tricyclic PI3K inhibitor compounds and methods of use” (2018).
pKi: −log10 of the molar value.

Molecular target: Phosphatidylinositol 4,5-bisphosphate 3-kinase catalytic subunit alpha isoform (Homo sapiens, UniProt P42336)
Assay: p110alpha (alpha) PI3K Binding Assay: PI3K Binding assays are intended for determining the biochemical potency of small molecule PI3K inhibitors. The PI3K lipid kinase reaction is performed in the presence of PIP2:3PS lipid substrate (Promega #V1792) and ATP. Following the termination if the kinase reaction, turnover of ATP to ADP by the phosphorylation of the lipid substrate is detected using the Promega ADP-Glo¿ (Promega #V1792) assay.

Sequence of Phosphatidylinositol 4,5-bisphosphate 3-kinase catalytic subunit alpha isoform (P42336 whole entry, canonical isoform): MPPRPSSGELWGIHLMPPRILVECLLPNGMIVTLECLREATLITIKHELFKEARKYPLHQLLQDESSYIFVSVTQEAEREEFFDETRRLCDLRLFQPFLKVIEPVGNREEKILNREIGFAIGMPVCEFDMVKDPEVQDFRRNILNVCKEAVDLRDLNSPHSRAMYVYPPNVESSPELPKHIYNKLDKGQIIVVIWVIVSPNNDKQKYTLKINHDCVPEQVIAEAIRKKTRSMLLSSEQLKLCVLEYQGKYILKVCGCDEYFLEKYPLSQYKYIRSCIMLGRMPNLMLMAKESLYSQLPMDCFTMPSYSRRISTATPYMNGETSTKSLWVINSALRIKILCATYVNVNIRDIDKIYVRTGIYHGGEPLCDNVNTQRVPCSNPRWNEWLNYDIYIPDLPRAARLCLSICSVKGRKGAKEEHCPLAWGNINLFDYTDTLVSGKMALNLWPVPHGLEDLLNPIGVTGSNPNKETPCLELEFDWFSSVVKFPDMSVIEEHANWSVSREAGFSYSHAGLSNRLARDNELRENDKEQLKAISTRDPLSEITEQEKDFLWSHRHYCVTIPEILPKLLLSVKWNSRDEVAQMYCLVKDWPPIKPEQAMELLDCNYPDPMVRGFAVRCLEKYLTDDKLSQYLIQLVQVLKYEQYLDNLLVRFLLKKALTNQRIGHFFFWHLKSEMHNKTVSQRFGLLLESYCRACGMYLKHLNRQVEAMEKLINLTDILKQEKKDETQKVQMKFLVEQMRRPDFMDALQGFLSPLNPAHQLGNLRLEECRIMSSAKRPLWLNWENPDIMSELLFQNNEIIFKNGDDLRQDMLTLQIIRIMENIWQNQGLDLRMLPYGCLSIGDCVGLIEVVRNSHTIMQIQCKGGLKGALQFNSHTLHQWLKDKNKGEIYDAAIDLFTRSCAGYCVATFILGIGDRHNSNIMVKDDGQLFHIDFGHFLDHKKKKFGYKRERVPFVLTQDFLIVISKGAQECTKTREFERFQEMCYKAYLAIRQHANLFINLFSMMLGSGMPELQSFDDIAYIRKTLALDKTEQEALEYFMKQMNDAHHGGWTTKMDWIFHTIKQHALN

Structure (SMILES)	pKi
Cn1cc(-c2nc3cc(N[C@H](C(N)=O)C4CC4)cc4c3n2CCCO4)cn1	6.44
Cn1ncnc1-c1nc2cc(N[C@H](C(N)=O)C3CC3)cc3c2n1CCCO3	6.40
NC(=O)[C@@H](Nc1cc2c3c(c1)nc(-c1ccc4c(n1)OCCO4)n3CCCO2)C1CC1	7.62

Further lines, results first:

pKi	Structure (SMILES)
9.57	CC[C@H](Oc1cc2c3c(c1)nc(-c1ccc4oc(N)nc4c1)n3CCCO2)C(N)=O (single isomer, unassigned)
9.10	CC[C@@H](Oc1cc2c3c(c1)nc(-c1ccc4oc(N)nc4c1)n3CCCO2)C(N)=O (single isomer, unassigned)
